Assay results: patent publication US6964957B2, “Fused pyrazole compounds, pharmaceutical compositions, and methods for modulating or inhibiting ERAB or HADH2 activity” (Agouron Pharmaceuticals, Inc., priority 2000, dated 2005)

Columns and labels:
[1] = molecular target: T1, ERAB (L-3-hydroxyacyl-CoA dehydrogenase) (Homo sapiens, UniProt Q99714); experiment: ERAB enzyme assay (loss of NADH absorbance at 340 nm, acetoacetyl-CoA as substrate); type: biochemical; conditions: 2.5 nM enzyme preincubated with inhibitor 400 seconds at 30° C., pH 7.5, 36 uM NADH, 2% DMSO; started with acetoacetyl-CoA (38 uM)
T1 sequence (Q99714 1-261): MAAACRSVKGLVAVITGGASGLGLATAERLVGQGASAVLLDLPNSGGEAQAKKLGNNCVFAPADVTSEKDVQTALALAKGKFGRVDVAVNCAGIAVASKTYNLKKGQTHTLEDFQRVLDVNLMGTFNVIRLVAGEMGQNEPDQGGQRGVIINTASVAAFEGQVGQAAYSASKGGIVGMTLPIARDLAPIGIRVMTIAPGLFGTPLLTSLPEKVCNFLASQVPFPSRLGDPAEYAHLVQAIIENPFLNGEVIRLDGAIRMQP
Procedure: The activity of ERAB (L-3-hydroxyacyl-CoA dehydrogenase) in the reverse direction was determined by a modified version of a method previously described (Binstock et al., Methods Enzymol., 71, 403-411 (1981)). This method is based on the enzyme-catalyzed loss of NADH absorbance at 340 nm with a change in the millimolar extinction coefficient of 6.22 mM^−1 cm^−1. The IC50 value for compounds of the Formula I were determined spectrophotometrically by monitoring the […] with acetoacetyl-CoA as substrate and are reported in Table 1. Assay conditions were 25 mM MOPS, 250 mM NaCl, 2% DMSO, 2.5 mM TCEP, pH 7.5, 30° C. NADH and ERAB were included at 40 uM and 2.5 nM, respectively. Stock solutions of ERAB, prepared in assay buffer, were 1 uM and contained 100 uM NADH for enzyme stability. The assay was run as follows: Enzyme (2.5 nM) was preincubated with inhibitor (without acetoacetyl-CoA present) for 400 seconds at 30° C. in the presence of 36 uM NADH, 25 mM MOPS, pH 7.5, 250 mM NaCl, 2%(v/v) DMSO, and 2.5 mM TCEP. The reaction was initiated by addition of substrate (acetoacetyl-CoA) (38 uM). Reduction of NADH was monitored at 340λ. Initial rates were calculated over a time frame where less than 10% of substrates had been consumed in an uninhibited reaction. For Ki, app determination, inhibitors were added during the preincubation stage from DMSO stock solutions for a final and constant 2% DMSO concentration. Initial rates were calculated and fitted, using non-linear fitting techniques, to the Michaelis equation for enzyme inhibition. The IC50 value was determined by non-linear regression analysis using KaleidaGraph (obtained from Synergy Software, Reading, Pa.).

Compound | IC50 [1] | melting point
CC(c1ccccc1)n1cnc2[nH]ncc2c1=O (stereo not shown) [LVII, 5-(1-Phenyl-ethyl)-1,5-dihydro-pyrazolo[3,4-d]pyrimidine-4-one] | 494000 nM | 210 to 214 °C
O=C(C(c1ccccc1)n1cnc2[nH]ncc2c1=O)N1CCCCCC1 (stereo not shown) [L] | 7100 nM | –
O=C(O)C(c1ccccc1)n1cnc2[nH]ncc2c1=S (stereo not shown) [XIVa, 2-Phenyl-(4-thioxo-1,4-dihydro-pyrazolo [3,4-d]pyrimidin-5-yl)acetic acid] | 514000 nM | 95 to 98 °C
O=C(C(c1ccccc1)n1cnc2[nH]ncc2c1=S)N1CCCC(O)C1 (stereo not shown) [XVIc, 1-(3-Hydroxy-piperidin-1-yl)-2-phenyl-2-(4-thioxo-1,4-dihydro-1,4-dihydro-pyrazolo[3,4-d]pyrimidin-5-yl)-ethanone] | 1800 nM | –
O=C(C(c1ccccc1)n1cnc2[nH]ncc2c1=S)N1CCCCCC1 (stereo not shown) [XVIa, 1-Azepan-1-yl-2-phenyl-2-(4-thioxo-1,4-dihydro-1,4-dihrdropyrazolo[3,4-d]pyrimidin-5-yl)-ethanone] | 97 nM | –
O=C(C(c1ccccc1)n1cnc2[nH]ncc2c1=S)N1CCC(O)(c2ccccc2)CC1 (stereo not shown) [XVIf, 1-(4-Hydroxy-4-phenyl-piperidin-1-yl)-2phenyl-2-(4-thioxo-1,4-dihydro-1,4-dihydro-pyrazolo[3,4-d]pyrimidin-5-yl)-ethanone] | 81 nM | 142 to 146 °C
O=C(OC1CCCCC1)C(c1ccccc1)n1cnc2[nH]ncc2c1=S (stereo not shown) [XIIa, 2-Phenyl-(4-thioxo-1,4-dihydro-pyrazolo[3,4-d]pyrimidin-5-yl)-acetic acid cyclohexyl ester] | 1200 nM | 170 to 173 °C
CON(C)C(=O)C(c1ccccc1)n1cnc2[nH]ncc2c1=S (stereo not shown) [XVIb, N-Methoxy-N-methyl-2-phenyl-2-(4-thioxo-1,4-dihydro-1,4-dihydro-pyrazolo[3,4-d]pyrimidin-5-yl)-ethanone] | 1500 nM | 82 to 86 °C
O=C(C(c1ccccc1)n1cnc2[nH]ncc2c1=S)N1CCN(c2ccccn2)CC1 (stereo not shown) [XVIi, 2-Phenyl-1-(4-pyridin-2-yl-piperazin-1-yl)-2-(4-thioxo-1,4-dihydro-pyrazolo[3,4-d]pyrimidin-5-yl)-ethanone] | 389 nM | 242 to 246 °C
O=C(OC1CCCCC1)C(c1ccccc1)n1cnc2[nH]ncc2c1=O (stereo not shown) [XIa, (4-Oxo-1,4-dihydro-pyrazolo[3,4-d]pyrimidin-5-yl)-phenyl-acetic acid cyclohexyl ester] | 30000 nM | 176 to 180 °C
O=C(C(c1ccccc1)n1cnc2[nH]ncc2c1=S)N1CCCCCCC1 (stereo not shown) [XVIe, 1-Azocan-1-yl-2-phenyl-2-(4-thioxo-1,4-dihydro-1,4-dihydropyrazolo[3,4-d]pyrimidin-5-yl)-ethanone] | 96 nM | 92 to 95 °C
COc1ccc(N2CCN(C(=O)C(c3ccccc3)n3cnc4[nH]ncc4c3=S)CC2)cc1 (stereo not shown) [XVIk, 1-[4-(4-Methoxy-phenyl)-piperazin-1-yl]-2-phenyl-2-(4-thioxo-1,4-dihydro-pyrazolo[3,4-d]pyrimidin-5-yl)-ethanone] | 300 nM | 114 to 118 °C
CC(=O)C1(c2ccccc2)CCN(C(=O)C(c2ccccc2)n2cnc3[nH]ncc3c2=S)CC1 (stereo not shown) [XVIh, 1-(4-Acetyl-4-phenyl-piperidin-1-yl)-2-phenyl-2-(4-thioxo-1,4-dihydro-pyrazolo[3,4-d]pyrimidin-5-yl)-ethanone] | 766 nM | –
O=C(C(c1ccccc1)n1cnc2[nH]ncc2c1=S)N1CCC(O)(c2ccc(Br)cc2)CC1 (stereo not shown) [XVIg] | 82 nM | 155 to 160 °C
CC(c1ccccc1)n1cnc2[nH]ncc2c1=S (stereo not shown) [LVIIIa, 5-(1-Phenyl-ethyl)-1,5-dihydro-pyrazolo[3,4-d]pyrimidine-4-thione] | 22000 nM | 170 to 174 °C
O=C(C(c1ccccc1)n1cnc2[nH]ncc2c1=S)N1CCN(c2ccccc2)CC1 (stereo not shown) [XVIj, 2-Phenyl-1-(4-phenyl-2-yl-piperazin-1-yl)-2-(4-thioxo-1,4-dihydro-pyrazolo[3,4-d]pyrimidin-5-yl)-ethanone] | 218 nM | 241 to 245 °C

The next lines start with the values.

IC50 [1] | melting point | Compound
– | 98 to 102 °C | CCCCC1(O)CCN(C(=O)C(c2ccccc2)n2cnc3[nH]ncc3c2=S)CC1 (stereo not shown) [XVIn, 1-(4-Butyl-4-hydroxy-piperidin-1-yl)-2-phenyl-2-(4-thioxo-1,4-dihydro-pyrazolo[3,4-d]pyrimidin-5-yl)-ethanone]
71 nM | – | CCCCC1(O)CCN(C(=O)C(c2ccccc2)n2cnc3[nH]ncc3c2=S)CC1 (stereo not shown) [XXVd]
51 nM | – | O=C(C(c1cccc(O)c1)n1cnc2[nH]ncc2c1=S)N1CCCCCC1 (stereo not shown) [XXVc]
216 nM | – | O=C(C(c1ccccc1)n1cnc2[nH]ncc2c1=S)N1CCC(c2ccccc2)CC1 (stereo not shown) [XXVb]
406 nM | 116 to 120 °C | C=CCOc1cccc(C(C(=O)N2CCC(O)(c3ccccc3)CC2)n2cnc3[nH]ncc3c2=S)c1 (stereo not shown) [XVIs, 2-(3-Allyoxy-phenyl)-1-(4-hydroxy-4-phenyl-piperidin-1-yl)-2-(4-thioxo-1,4-dihydro-pyrazolo[3,4-d]pyrimidin-5-yl)-ethanone]
11000 nM | – | C=CCOc1cccc(C(C(=O)OC2CCCCC2)n2cnc3[nH]ncc3c2=S)c1 (stereo not shown) [XXIII]
749 nM | – | CN(C(=O)C(c1ccccc1)n1cnc2[nH]ncc2c1=S)c1ccccc1 (stereo not shown) [XXVe]
210 nM | 140 to 144 °C | CC1(O)CCN(C(=O)C(c2ccccc2)n2cnc3[nH]ncc3c2=S)CC1 (stereo not shown) [XVIp, 1-(4-Methyl-4-hydroxy-piperidin-1-yl)-2-phenyl-2-(4-thioxo-1,4-dihydro-pyrazolo[3,4-d]pyrimidin-5-yl)-ethanone]
345 nM | 75 to 80 °C | C=CCOc1cccc(C(C(=O)N2CCCCCC2)n2cnc3[nH]ncc3c2=S)c1 (stereo not shown) [XVIt, 2-(3-Allyoxy-phenyl)-1-azepan-1-yl-2-(4-thioxo-1,4-dihydro-pyrazolo[3,4-d]pyrimidin-5-yl)-ethanone]
774 nM | – | O=C(C(c1ccccc1)n1cnc2[nH]ncc2c1=S)N1CCCCC1 (stereo not shown) [XXVa]
2800 nM | – | CCN(C(=O)C(c1ccccc1)n1cnc2[nH]ncc2c1=S)C(C)C (stereo not shown) [XVIq, N-Ethyl-N-isopropyl-2-phenyl-2-(4-thioxo-1,4-dihydro-pyrazolo[3,4d]pyrimidin-5-yl)-acetamide]
279 nM | 138 to 142 °C | O=C(C(c1ccccc1)n1cnc2[nH]ncc2c1=S)N1CCC(O)(c2ccccn2)CC1 (stereo not shown) [XVIm, 1-(4-Hydroxy-3′,4′,5′,6′-tetrahydro-2H-[2,4]bipyridinyl-1′-yl]-2-phenyl-2-(4-thioxo-1,4-dihydro-pyrazolo[3,4-d]pyrimidin-5-yl)-ethanone]
93 nM | 143 to 146 °C | CCN(CC)C(=O)C(c1ccccc1)n1cnc2[nH]ncc2c1=S (stereo not shown) [XVIr, N,N-Diethyl-2-phenyl-2-(4-thioxo-1,4-dihydro-pyrazolo[3,4-d]pyrimidin-5-yl)-acetamide]
